Experimental data as given in US9540389B2, “Antimicrobial potentiators” (priority 2013, dated 2017).
Values after ≈ are worked out from the molar mass of the structure shown.

How the values were obtained:
[1] = tested on: Enterobacter aerogenes ATCC 13048; assay: MIC assay (microbroth dilution) ± 25 μM EPI; assay type: cell-based
Source text: (§1) • Strains and Reagents. The following strains were obtained from the Keio collection (Baba, et al.: Construction of Escherichia coli K-12 in-frame, single-gene knockout mutants: the Keio collection. In Mol Syst Biol, vol. 2, pp. 2006 0008, (2006)): JW0451 (ΔacrB::kan), JW5503 (ΔtolC::kan), JW3234 (ΔacrF::kan), JW2661 (ΔemrB::kan), JW0863 (ΔmacB::kan). The deletion mutations in each of these strains were transferred to AB1157 using P1 phage transduction (see Table 1). The construction of the E. coli cell-based reporter strain (SOS-XXX) that was used for high throughput screening is described in detail in the supplementary information. […] Irgasan was a generous gift from Ciba Speciality Chemicals, Inc. (High Point, N.C.). Hoechst 33342 (H33342) was purchased from Molecular Probes (Eugene, Oreg.). […] Luria Broth (Miller) and agar were purchased as prepared dehydrated media from Becton Dickenson (Franklin Lakes, N.J.). The compound libraries used in high-throughput screens were purchased from Chembridge (San Diego, Calif.), ChemDiv (San Diego, Calif.), and TimTec (Newark, Del.). MBX2319 was synthesized by Microbiotix, Inc. • Antibacterial Activity Assays. The minimal inhibitory concentration (MIC) of antibacterial agents and biocides were determined using the microbroth dilution method essentially as described in the CLSI protocol M7-A7 (CLSI: Method for dilution antimicrobial susceptibility testing for bacteria that grow aerobically; Approved standard-document M7-A7. In Clinical and Laboratory Standards Institute document M7-A7, Clinical and Laboratory Standards Institute, Wayne, Pa., (2006)), with the following exceptions. LB media was used instead of MHB. […] The final concentration of DMSO in each assay was 2%. […] MIC assays were performed in triplicate and the geometric mean was calculated. Checkerboard MIC assays using an EPI and an antibacterial agent were performed essentially as described (Pillai, et al.: Antimicrobial Combinations. In Antibiotics in Laboratory Medicine, ed. by V. Lorian, pp. 365-440, Lippincott Williams & Wilkins, Philadelphia, Pa., (2005)), with the same modifications used for the MIC assays described above. • Time-Kill Assays. Killing curve assays were performed essentially as described (Pillai, et al.: Antimicrobial Combinations. In Antibiotics in Laboratory Medicine, ed. by V. Lorian, pp. 365-440, Lippincott Williams & Wilkins, Philadelphia, Pa., (2005)). Exponential bacterial cultures grown in LB were diluted to a cell density of ˜1×10^7 in LB followed by addition of CIP and/or an EPI. Viability was monitored over 2-4 hours by making serial dilutions in saline and spotting 5 μl of each dilution onto the surface of an LB agar plate in triplicate. Colonies were counted after the plates were incubated at 37° C. for 16-18 hr, colony forming units (CFU) per ml were calculated, and the average and standard deviation for the three replicates was determined. For treatments that decreased CFU/ml below the limit of detection for the spot plating method, the 100 μl samples were diluted into 5 ml LB top agar, were poured onto LB agar plates, and incubated for 18 hr at 37° C. To calculate the fraction of the control for each sample, the average CFU/ml values for treated samples were divided by those from the same sample at 0 h (time=0). Each experiment was repeated at least three times, and a representative experiment is shown. • H33342 Accumulation Assay. The rate of accumulation of the fluorescent dye Hoechst 33342 (H33342), which is a substrate of a wide variety of bacterial efflux pumps (van den Berg van Saparoea, et al., Biochemistry, vol. 44, pp. 16931-16938, (2005)), can be used to estimate the activity of the major efflux pumps in E. coli and many other bacterial species. The H33342 accumulation assay was used to evaluate the effect of EPIs on the activity of the AcrAB-TolC efflux pump in several bacterial species essentially as described (Coldham, et al., J Antimicrob Chemother, vol. 65, pp. 1655-1663, (2010)). […]

[2] = tested on: Klebsiella pneumoniae ATCC 700603; assay: MIC assay (microbroth dilution) ± 25 μM EPI; assay type: cell-based
Source text: as §1

[3] = tested on: Salmonella enterica ATCC 14028; assay: MIC assay (microbroth dilution) ± 25 μM EPI; assay type: cell-based
Source text: as §1

Escherichia coli AB1157 [4] = assay: MIC assay (microbroth dilution) ± 25 μM EPI; assay type: cell-based; settings: E. coli AB1157 (WT); + 25 μM MBX2319; geometric mean
Source text: as §1

Escherichia coli 331 = assay: MIC assay (microbroth dilution) ± 25 μM EPI; assay type: cell-based; settings: E. coli 331
Source text: as §1

[5] = tested on: Shigella flexneri ATCC 12022; assay: MIC assay (microbroth dilution) ± 25 μM EPI; assay type: cell-based
Source text: as §1

[6] = tested on: Escherichia coli ATCC 25922; assay: MIC assay (microbroth dilution) ± 25 μM EPI; assay type: cell-based; settings: E. coli ATCC 25922
Source text: as §1

P. aeruginosa ATCC 27853 = assay: MIC assay (microbroth dilution) ± 25 μM EPI; assay type: cell-based, Pseudomonas aeruginosa
Source text: as §1

Escherichia coli AB1157 [7] = assay: microbe, parasite or virus in culture
[8] = tested on: Escherichia coli AB1157 ΔtolC; assay: Checkerboard MIC assay (antibacterial agent + MBX2319); assay type: cell-based
Source text: as §1

[9] = tested on: Escherichia coli AB1157 ΔacrF; assay: as above; assay type: cell-based
Source text: as §1

[10] = tested on: Escherichia coli AB1157 ΔacrB; assay: as above; assay type: cell-based
Source text: as §1

[11] = tested on: Escherichia coli AB1157 (WT); assay: as above; assay type: cell-based; settings: WT
Source text: as §1

[12] = Escherichia coli, read-out: MIC (μg/ml) with MBX2319 at concn (μM) of: 0

C[C@H]1COc2c(N3CCN(C)CC3)c(F)cc3c(=O)c(C(=O)O)cn1c23 [Levofloxacin]
MIC (μg/ml) ± EPI: MBX2319 ([1]; + 25 μM MBX2319): 0.044 µg/mL
MIC (μg/ml) ± EPI: PAβN ([1]; + 25 μM PAβN): 0.063 µg/mL
MIC ([1]; Klebsiella aerogenes, ATCC13048, no EPI, read-out: MIC (μg/ml) ± EPI: None): 0.177 µg/mL
MIC (μg/ml) ± EPI: MBX2319 ([2]; + 25 μM MBX2319): 0.149 µg/mL
MIC (μg/ml) ± EPI: PAβN ([2]; + 25 μM PAβN): 0.5 µg/mL
MIC ([2]; ATCC700603, no EPI, read-out: MIC (μg/ml) ± EPI: None): 0.71 µg/mL
MIC (μg/ml) ± EPI: MBX2319 ([3]; + 25 μM MBX2319): 0.016 µg/mL
MIC (μg/ml) ± EPI: PAβN ([3]; + 25 μM PAβN): 0.044 µg/mL
MIC ([3]; ATCC14028, no EPI, read-out: MIC (μg/ml) ± EPI: None): 0.062 µg/mL
MICs (μg/ml) ± EPIs: MBX2319 (Escherichia coli AB1157 [4]): 0.016 µg/mL
MIC (μg/ml) ± EPI: MBX2319 (Escherichia coli 331; + 25 μM MBX2319): 11.3 µg/mL
MIC (μg/ml) ± EPI: PAβN (Escherichia coli 331; + 25 μM PAβN): 32 µg/mL
MIC (Escherichia coli 331; Escherichia coli, no EPI, read-out: MIC (μg/ml) ± EPI: None): 64 µg/mL
MIC (μg/ml) ± EPI: MBX2319 ([5]; Shigella flexneri ATCC 12022, + 25 μM MBX2319): 0.016 µg/mL
MIC (μg/ml) ± EPI: PAβN ([5]; Shigella flexneri ATCC 12022, + 25 μM PAβN): 0.031 µg/mL
MIC ([5]; Shigella flexneri, ATCC12022, read-out: MIC (μg/ml) ± EPI: None): 0.063 µg/mL
MIC (μg/ml) ± EPI: MBX2319 ([6]; + 25 μM MBX2319): 0.013 µg/mL
MIC (μg/ml) ± EPI: PAβN ([6]; + 25 μM PAβN): 0.022 µg/mL
MIC (μg/ml) ± EPI: MBX2319 (P. aeruginosa ATCC 27853; + 25 μM MBX2319): 1 µg/mL
MIC (μg/ml) ± EPI: PAβN (P. aeruginosa ATCC 27853; + 25 μM PAβN): 0.5 µg/mL
MIC (P. aeruginosa ATCC 27853; Pseudomonas aeruginosa, ATCC27853, no EPI, read-out: MIC (μg/ml) ± EPI: None): 1 µg/mL
MIC (Escherichia coli AB1157 [7]): 0.06 µg/mL (≈ 0.166 µM)
MIC [8, 12]: 0.016 µg/mL
MIC (μg/ml) with MBX2319 at concn (μM) of: 1.56 ([8]; ΔtolC, MBX2319 1.56 μM): 0.016 µg/mL
MIC (μg/ml) with MBX2319 at concn (μM) of: 3.13 ([8]; ΔtolC, MBX2319 3.13 μM): 0.016 µg/mL
MIC [9, 12]: 0.063 µg/mL
MIC (μg/ml) with MBX2319 at concn (μM) of: 6.25 ([9]; ΔacrF, MBX2319 6.25 μM): 0.016 µg/mL
MIC (μg/ml) with MBX2319 at concn (μM) of: 25 ([9]; ΔacrF, MBX2319 25 μM): 0.016 µg/mL
MIC (μg/ml) with MBX2319 at concn (μM) of: 50 ([9]; ΔacrF, MBX2319 50 μM): 0.016 µg/mL
MIC (μg/ml) with MBX2319 at concn (μM) of: 12.5 ([9]; ΔacrF, MBX2319 […]): 0.016 µg/mL
MIC [10, 12]: 0.016 µg/mL
MIC (μg/ml) with MBX2319 at concn (μM) of: 1.56 ([10]; ΔacrB, MBX2319 1.56 μM): 0.016 µg/mL
MIC (μg/ml) with MBX2319 at concn (μM) of: 3.13 ([10]; ΔacrB, MBX2319 3.13 μM): 0.016 µg/mL
MIC (μg/ml) with MBX2319 at concn (μM) of: 6.25 ([10]; ΔacrB, MBX2319 6.25 μM): 0.016 µg/mL
MIC (μg/ml) with MBX2319 at concn (μM) of: 25 ([10]; ΔacrB, MBX2319 25 μM): 0.016 µg/mL
MIC (μg/ml) with MBX2319 at concn (μM) of: 50 ([10]; ΔacrB, MBX2319 50 μM): 0.016 µg/mL
MIC (μg/ml) with MBX2319 at concn (μM) of: 12.5 ([10]; ΔacrB, MBX2319 […]): 0.016 µg/mL
MIC (μg/ml) with MBX2319 at concn (μM) of: 3.13 ([11]; MBX2319 3.13 μM): 0.016 µg/mL
MIC (μg/ml) with MBX2319 at concn (μM) of: 6.25 ([11]; MBX2319 6.25 μM): 0.016 µg/mL
MIC (μg/ml) with MBX2319 at concn (μM) of: 25 ([11]; MBX2319 25 μM): 0.016 µg/mL
MIC (μg/ml) with MBX2319 at concn (μM) of: 50 ([11]; MBX2319 50 μM): 0.016 µg/mL
MIC (μg/ml) with MBX2319 at concn (μM) of: 12.5 ([11]; MBX2319 […]): 0.016 µg/mL
